Results taken from BigSolDB 2.1.

Cc1c(Cl)cccc1Nc1ccccc1C(=O)O
solubility (mole fraction)
Settings | 283.15 K | 288.15 K | 293.15 K | 298.15 K | 303.15 K | 308.15 K | 313.15 K | 318.15 K | 323.15 K | 328.15 K
in 1,4-dioxane | – | 0.0289 | 0.032 | 0.0356 | 0.0399 | 0.0444 | 0.0492 | 0.0548 | 0.0599 | 0.0654
in DMF | 0.00652 | 0.00892 | 0.0117 | 0.0152 | 0.019 | 0.0241 | 0.0303 | 0.0374 | 0.0454 | 0.055
in DMSO | – | – | 0.0144 | 0.0186 | 0.0229 | 0.0288 | 0.0351 | 0.042 | 0.0495 | 0.0571
in acetonitrile | 0.000228 | 0.000339 | 0.000463 | 0.000618 | 0.000808 | 0.00107 | 0.00137 | 0.00177 | 0.00221 | 0.00282
in cyclohexane | 2.97e-05 | 4.31e-05 | 5.94e-05 | 8.23e-05 | 0.000116 | 0.000159 | 0.000216 | 0.000292 | 0.000391 | 0.000515
in ethyl acetate | 0.00603 | 0.00799 | 0.0102 | 0.0127 | 0.0162 | 0.0201 | 0.0252 | 0.0314 | 0.0383 | 0.0458
in ethyl formate | 0.00169 | 0.00239 | 0.00311 | 0.00405 | 0.00506 | 0.0066 | 0.00833 | 0.01 | 0.0131 | 0.0159
in ethylene glycol | 8.74e-05 | 0.000132 | 0.000177 | 0.000233 | 0.000311 | 0.000406 | 0.000546 | 0.000717 | 0.000931 | 0.00122
in n-heptanol | 0.00557 | 0.00726 | 0.00924 | 0.0114 | 0.0142 | 0.0171 | 0.0214 | 0.0257 | 0.0306 | 0.0366
in n-hexanol | 0.00435 | 0.00581 | 0.00758 | 0.0094 | 0.0118 | 0.0144 | 0.0176 | 0.021 | 0.0251 | 0.0295
in n-pentanol | 0.00335 | 0.00432 | 0.00575 | 0.00741 | 0.00916 | 0.0112 | 0.0138 | 0.0169 | 0.0206 | 0.0243
in n-pentyl acetate | 0.00558 | 0.00726 | 0.00931 | 0.0116 | 0.0146 | 0.0179 | 0.0218 | 0.0261 | 0.031 | 0.0371
